Earlier results as cited in US6015805A, “17β-nitro-11β-arylisteroids and their derivatives having agonist or antagonist hormonal properties” (Research Triangle Research North Carolina, priority 1999, dated 2000).

System: glucocorticoid receptor
Settings: in words; cited from earlier work

Structure (SMILES): CC#C[C@]1(O)CC[C@H]2[C@@H]3CCC4=CC(=O)CCC4=C3[C@@H](c3ccc(N(C)C)cc3)C[C@@]21C [mifepristone]
- glucocorticoid or antiglucocorticoid activity as side-effect: significant side-effect
